# Assay results taken from article PMC9784215, “Silymarin Protects against Acute Liver Injury Induced by Acetaminophen by Downregulating the Expression and Activity of the CYP2E1 Enzyme” (Molecules, 2022).
# Columns and labels:
# CYP2E1 [1] = target: T1, CYP2E1 (Rattus norvegicus, UniProt P05182); settings: microsomes
# Method: (§1) The probe substrate CLX, 50 mM potassium phosphate buffer (KPI, pH 7.4), and 0.25 mg/mL HLMS or RLMs were mixed and then an NADPH-regenerating system (1 mM β-NADP, 5 mM D-glucose-6-phosphate, 1 U/mL glucose-6-phosphate dehydrogenase, and 5 mM MgCl2) were added to initiate reaction. […] HLMs or RLMs were incubated with CLX at 37 °C for 30 min. At the end of the incubation, 100 µL of precooled acetonitrile was added to terminate the reaction. After vortexing and centrifugation at 14,000 rpm for 5 min, 50 µL of supernatant mixed with 10 µL of the internal standard GEN was removed, and the sample was analyzed by HPLC–MS/MS.
# (§2) Activities were expressed as a percentage of 6-OH-CLX production in the blank control.
# (§3) Nonlinear regression analysis in GraphPad was used to calculate Km and Vmax. To determine the inhibitory type of CYP2E1 by SM, the above data were plotted as a Lineweaver–Burk plot.
# (§4) Inhibition data were plotted as Dixon plots, and the inhibition constant (Ki) was calculated from the regression equation.
# CYP2E1 [2] = target: T1, CYP2E1; settings: in vivo
# Method: (§5) SD rats were randomly divided into two groups (six rats in each group). One group was orally administered 4% HP-β-CD (w/v) solution as a solvent control group and the other group was orally administered SM 45 mg/kg (dissolved in 4% HP-β-CD (w/v)) for 21 consecutive days. On the 22nd day, rats in the two groups were given a single oral dose of CLX 30 mg/kg (suspended in 0.5% CMC-Na solution (w/v)). […] After the final blood collection, rats were euthanized by intraperitoneal injection of 50% urethane.
# (§6) The concentrations of APAP and its metabolites in rat plasma and the concentrations of CLX and 6-OH-CLX in rat plasma, and the phase I metabolic system in vitro were determined by HPLC—MS/MS. […] Briefly, a 50 μL plasma sample was vortexed with 10 μL of the internal standard solution, and 150 μL pf methanol was then added to the mixture and shaken for 3 min to precipitate the protein. The sample was centrifuged at 14,000 rpm for 5 min, and 10 µL of the supernatant was analyzed by LC–MS/MS. […] The noncompartmental analysis using Phoenix WinNonlin software (version 6.3, Pharsight Corp, Mountain View, CA, USA) was used to calculate the pharmacokinetic parameters of CLX and 6-OH-CLX.
# CYP2E1 [3] = target: CYP2E1 (Homo sapiens, UniProt P05181)
# Method: as §1, §2, §3, §4
# APAP-induced ALI mice = test: APAP-induced ALI in mice: serum ALT/AST, liver reduced GSH, H&E histology; assay type: in vivo, mouse; settings: APAP 350 mg/kg i.p., 24 h
# Method: The levels of ALT and AST in mouse serum and reduced GSH in mouse livers were measured by West China Frontier Pharmatech (Chengdu, China).
# The right lower lobe of the mouse liver was fixed with 4% paraformaldehyde for 24 h in preparation for H&E staining. The embedding and slicing processes for H&E staining were performed by Ao’Chuang Biotechnology Co., Ltd. (Chengdu, China). Images were acquired with a phase contrast microscope with 20× and 40× objective lenses. The scale bars were added with ImageJ software.
# Cyp2e1 [4] = test: Cyp2e1 mRNA and protein expression in mouse liver (RT-qPCR, Western blot); assay type: in vivo; settings: mice, single i.p. APAP 350 mg/kg, 24 h
# From the text: Antibodies against CYP2E1 were kindly provided by Proteintech Biotechnology.
# CYP2E1 [5] = target: T1, CYP2E1; test: Pharmacokinetics of probe substrate CLX and 6-OH-CLX in rats after 21 days of SM pretreatment; settings: single oral 30 mg/kg CLX, solvent control group
# Method: as §5, §6
# Chain of CYP2E1 (Homo sapiens, UniProt P05181) (P05181 whole entry): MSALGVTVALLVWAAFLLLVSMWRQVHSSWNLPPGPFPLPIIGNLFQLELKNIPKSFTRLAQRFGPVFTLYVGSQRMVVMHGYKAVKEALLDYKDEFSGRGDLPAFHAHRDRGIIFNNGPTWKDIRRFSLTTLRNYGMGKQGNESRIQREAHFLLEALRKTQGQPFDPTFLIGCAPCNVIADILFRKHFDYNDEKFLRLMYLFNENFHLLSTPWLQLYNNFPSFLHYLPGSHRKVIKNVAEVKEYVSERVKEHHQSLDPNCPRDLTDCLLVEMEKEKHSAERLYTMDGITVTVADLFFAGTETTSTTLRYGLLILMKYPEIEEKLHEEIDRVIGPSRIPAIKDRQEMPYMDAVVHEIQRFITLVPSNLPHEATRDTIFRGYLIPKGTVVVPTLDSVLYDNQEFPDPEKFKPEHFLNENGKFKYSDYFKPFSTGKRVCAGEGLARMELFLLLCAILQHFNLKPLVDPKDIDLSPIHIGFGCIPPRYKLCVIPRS
# T1 sequence (P05182 whole entry): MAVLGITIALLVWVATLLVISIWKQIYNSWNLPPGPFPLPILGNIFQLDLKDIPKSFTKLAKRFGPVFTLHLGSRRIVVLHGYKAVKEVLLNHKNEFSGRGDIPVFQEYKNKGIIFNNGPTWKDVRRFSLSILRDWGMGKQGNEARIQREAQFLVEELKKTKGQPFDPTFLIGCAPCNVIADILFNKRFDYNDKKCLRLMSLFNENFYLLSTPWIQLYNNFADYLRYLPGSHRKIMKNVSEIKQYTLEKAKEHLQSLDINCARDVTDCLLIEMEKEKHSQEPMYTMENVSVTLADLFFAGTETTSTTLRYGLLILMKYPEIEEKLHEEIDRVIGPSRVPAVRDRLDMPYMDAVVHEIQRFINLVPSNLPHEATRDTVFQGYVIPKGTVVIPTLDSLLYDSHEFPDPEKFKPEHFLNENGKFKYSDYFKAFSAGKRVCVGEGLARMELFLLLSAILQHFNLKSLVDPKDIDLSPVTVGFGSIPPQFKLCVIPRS
molecule,measurement,setting,value
silymarin,IC50,CYP2E1 [1],26.1 µM
same,Ki,CYP2E1 [1],9.49 µM
same,CL of CLX,CYP2E1 [2],272.12 ± 41.99 mL/h/kg
same,Vd of CLX,CYP2E1 [2],1566.26 ± 674.78 mL/kg
same,t1/2 of CLX,CYP2E1 [2],3.92 ± 1.25 h
same,tmax of CLX,CYP2E1 [2],34.8 ± 18 min
same,Km of CLX,CYP2E1 [3],1827 ± 318 µM
same,Vmax of CLX,CYP2E1 [3],4.56 ± 1.67 nM/h/mg Protein
same,IC50,CYP2E1 [3]; microsomes,14.8 µM
same,Ki,CYP2E1 [3]; microsomes,23.2 µM
"CC(=O)Nc1ccc(O)cc1 [APAP, Acetaminophen]","liver histopathology (H&E), hepatic lobule structure",APAP-induced ALI mice,severely damaged
same,liver reduced GSH content vs solvent control group,APAP-induced ALI mice,significantly reduced
same,serum ALT level vs solvent control group,APAP-induced ALI mice,significantly increased
same,serum AST level vs solvent control group,APAP-induced ALI mice,significantly increased
same,liver Cyp2e1 mRNA and protein expression vs solvent control group,Cyp2e1 [4],significantly upregulated
O=c1[nH]c2cc(Cl)c(O)cc2o1 [6-OH-CLX],AUC0-t of 6-OH-CLX,CYP2E1 [5],287.58 ± 106.13 ng·h/mL
same,AUC0-∞ of 6-OH-CLX,CYP2E1 [5],325.78 ± 127.17 ng·h/mL
